Measured values from PubChem BioAssay AID1626 (SRMLSC, 2009).

Test system: M. tuberculosis H37Rv growth inhibition
Test: M. tuberculosis H37Rv growth inhibitors, H37Rv strain (AID 1626)
Conditions: for IC90: measured here: IC90 against H37Rv; for CC50: measured here: Vero cell cytotoxicity

Question: With `Cc1c(Cl)c([N+](=O)[O-])nn1CCCC(=O)Nc1cc(Oc2ccccc2)cc([N+](=O)[O-])c1` as the compound, how does the IC50 read?
Answer: 6.86 µM

Question: What about the IC90 of the same compound?
Answer: 10.5 µM

Question: And the CC50?
Answer: 28.7 µM

Question: For `NS(=O)(=O)c1ccc(CCNC(=O)c2ccc3nc4ccc(Cl)cc4c(=O)n3c2)cc1`, which IC50 is on record?
Answer: 10.1 µM

Question: And the IC90?
Answer: 30.3 µM

Question: Which results are given for `CCOC(=O)c1cnc(-n2nc(C)cc2C)nc1NCc1ccc2c(c1)OCO2`?
Answer: IC50: 4.62 µM; IC90: > 100 µM; CC50: > 40 µM

Question: Which results are given for `CCCc1cc(NCc2ccccn2)n2nc(C)c(-c3ccccc3)c2n1`?
Answer: IC50: 4.33 µM; IC90: 7.09 µM; CC50: > 40 µM

Question: With `Cc1ccc(Cc2cnc(NC(=O)C3=NCCN3)s2)cc1` as the compound, how does the IC50 read?
Answer: 2.07 µM

Question: What about the IC90 of the same compound?
Answer: 7.96 µM

Question: With `Cc1ccc(Oc2cc(NC(=O)CCCn3nc(C)c([N+](=O)[O-])c3C)cc([N+](=O)[O-])c2)cc1` as the compound, how does the IC50 read?
Answer: 2.33 µM

Question: What about the IC90 of the same compound?
Answer: 3.34 µM

Question: And the CC50?
Answer: > 40 µM

Question: For `O=c1cc(-c2c(F)c(F)c(F)c(F)c2F)oc2ccccc12`, which IC50 is on record?
Answer: 0.221 µM

Question: And the IC90?
Answer: 2.3 µM

Question: What about the CC50 of the same compound?
Answer: > 40 µM

Question: What does the source list for `CCCc1cc(NCCCn2ccnc2)n2nc(C)c(-c3ccccc3)c2n1`?
Answer: IC50: 6.28 µM; IC90: 9.38 µM; CC50: > 40 µM

Question: How did the IC50 turn out when `O=C(NCc1nc(-c2ccc(C(F)(F)F)cc2)no1)Nc1cc(Cl)cc(Cl)c1` was run?
Answer: 5.74 µM

Question: And the IC90?
Answer: 10.6 µM

Question: What about the CC50 of the same compound?
Answer: 12.6 µM

Question: `COc1ccc(Br)cc1C(=O)Nc1ccccc1N1CCN(C(=O)c2ccccc2)CC1` was tested. Which IC50 did it give?
Answer: 16.7 µM

Question: And the IC90?
Answer: > 100 µM

Question: And the CC50?
Answer: > 40 µM

Question: For `CCC1CCCCN1C(=O)COC(=O)c1cc(Br)ccc1Cl` (stereo not given), which IC50 is on record?
Answer: 15.2 µM

Question: What about the IC90 of the same compound?
Answer: > 100 µM

Question: `O=C(/C=C/c1ccccc1O)c1ccc(Cl)cc1` was tested. Which IC50 did it give?
Answer: 14.4 µM

Question: And the IC90?
Answer: 24.1 µM

Question: And the CC50?
Answer: 27 µM

Question: How did the IC50 turn out when `CCCn1c(NC(=O)c2ccc(Br)cc2)nc2ccccc21` was run?
Answer: 17.2 µM

Question: And the IC90?
Answer: > 100 µM

Question: What about the CC50 of the same compound?
Answer: > 40 µM

Question: What does the source list for `CCCCc1ccc(NC=C2C(=O)OC3(CCCCC3)OC2=O)cc1`?
Answer: IC50: 6.18 µM; IC90: > 100 µM

Question: For `Cc1ccc(C(C(=O)Nc2ccc3c(c2)OCO3)N(C)C(=O)/C=C\c2ccc3c(c2)OCO3)cc1` (stereo not given), which IC50 is on record?
Answer: 45.5 µM

Question: What about the IC90 of the same compound?
Answer: > 100 µM

Question: What does the source list for `COc1ccc(NCC(=O)Nc2ccccc2C#N)cc1Cl`?
Answer: IC50: 97.8 µM; IC90: > 100 µM

Question: With `OC(CN1CCN(Cc2ccccc2)CC1)Cn1c2ccccc2c2ccccc21` (stereo not given) as the compound, how does the IC50 read?
Answer: 16.5 µM

Question: What about the IC90 of the same compound?
Answer: 22.9 µM

Question: What about the CC50 of the same compound?
Answer: > 40 µM

Question: Which IC50 does the source give for `COC(=O)CCCC(=O)Nc1ccc(Cl)c(Cl)c1` here?
Answer: 23.1 µM

Question: And the IC90?
Answer: > 100 µM

Question: For `CN(Cc1nc2ccccc2c(=O)[nH]1)Cc1nc2ccsc2c(=O)[nH]1`, which IC50 is on record?
Answer: 1.95 µM

Question: And the IC90?
Answer: 4.36 µM

Question: With `COc1ccc(N2CCN(Cc3nc(N)nc(Nc4ccc(C)c(Cl)c4)n3)CC2)cc1` as the compound, how does the IC50 read?
Answer: 0.546 µM

Question: And the IC90?
Answer: 1.71 µM

Question: What about the CC50 of the same compound?
Answer: > 40 µM

Question: With `Cc1nc(NC(=O)c2ccccc2)sc1Cc1ccc2c(c1)OCO2` as the compound, how does the IC50 read?
Answer: 60.5 µM

Question: What about the IC90 of the same compound?
Answer: > 100 µM

Question: What about the CC50 of the same compound?
Answer: > 40 µM

Question: For `CCCOC(=O)c1ccc(NC(=O)CCOc2ccccc2)cc1`, which IC50 is on record?
Answer: 0.622 µM

Question: What about the IC90 of the same compound?
Answer: > 100 µM

Question: Which IC50 does the source give for `Nc1[nH]ncc1-c1ccc(Cl)cc1` here?
Answer: 21.6 µM

Question: What about the IC90 of the same compound?
Answer: > 100 µM

Question: With `COc1cccc(OCCNC(=O)c2cc([N+](=O)[O-])cc([N+](=O)[O-])c2)c1` as the compound, how does the IC50 read?
Answer: < 0.195 µM

Question: And the IC90?
Answer: 0.747 µM

Question: Which IC90 does the source give for `CSc1nc2ccc(NS(=O)(=O)c3cccc(Cl)c3Cl)cc2s1` here?
Answer: > 100 µM

Question: For `CCCOc1cccc(-c2nn(-c3ccccc3)cc2/C=C(\C#N)C(=O)NCCCn2ccnc2)c1`, which IC50 is on record?
Answer: 10.9 µM

Question: What about the IC90 of the same compound?
Answer: 11.9 µM

Question: What about the CC50 of the same compound?
Answer: > 40 µM

Question: Which results are given for `CC1CCCC(NC(=O)COC(=O)c2sc3ccccc3c2Cl)C1C` (stereo not given)?
Answer: IC50: 7.47 µM; IC90: > 100 µM

Question: With `Cc1nn2c(NCc3ccccn3)cc(C(C)C)nc2c1-c1ccccc1` as the compound, how does the CC50 read?
Answer: > 40 µM

Question: `CCn1c(NC(=O)c2ccccc2)nc2ccccc21` was tested. Which IC50 did it give?
Answer: 1.71 µM

Question: What about the IC90 of the same compound?
Answer: 8.64 µM

Question: And the CC50?
Answer: > 40 µM

Question: For `COC(=O)c1c(NC(=O)c2ccccc2)sc(C(=O)c2ccccc2)c1C`, which IC50 is on record?
Answer: 9.53 µM

Question: What about the IC90 of the same compound?
Answer: 25.6 µM

Question: What about the CC50 of the same compound?
Answer: 25.3 µM

Question: What does the source list for `Cc1ccc(C)c(-c2csc(NC(=O)c3cnccn3)n2)c1`?
Answer: IC50: 2.6 µM; IC90: > 100 µM; CC50: > 40 µM

Question: With `COc1cc(-c2nnc(SCC(=O)OC3CCCCC3)o2)cc(OC)c1OC` as the compound, how does the IC50 read?
Answer: < 0.195 µM

Question: What about the IC90 of the same compound?
Answer: 1.78 µM

Question: With `Cc1c(Cc2ccccc2)c(=O)n2c([nH]c3ccccc32)c1C#N` as the compound, how does the IC50 read?
Answer: 3.04 µM

Question: What about the IC90 of the same compound?
Answer: > 100 µM

Question: What about the CC50 of the same compound?
Answer: 13 µM

Question: Which IC50 does the source give for `CCOC(=O)C(Nc1ccc2ccccc2c1)C(=O)OCC` here?
Answer: 1.04 µM

Question: And the IC90?
Answer: 2.86 µM

Question: What about the CC50 of the same compound?
Answer: > 40 µM

Question: For `CCOc1ccc(N=Cc2c(O)n(-c3cc(C)cc(C)c3)c(=O)[nH]c2=O)cc1`, which IC50 is on record?
Answer: < 0.195 µM

Question: What about the IC90 of the same compound?
Answer: > 100 µM

Question: What does the source list for `COc1ccccc1-c1nc(-c2ccccc2)nc(N2CCN(C)CC2)c1C#N`?
Answer: IC50: 16.5 µM; IC90: 22 µM; CC50: > 40 µM

Question: For `NS(=O)(=O)c1ccc(CCNc2ncnc3c2c(-c2ccccc2)cn3-c2ccc(F)cc2)cc1`, which IC50 is on record?
Answer: 5.77 µM

Question: And the IC90?
Answer: 6.76 µM

Question: What about the CC50 of the same compound?
Answer: > 40 µM

Question: For `CCOC(=O)c1sc2nc(CSc3ccccc3)nc(N3CCCN(C)CC3)c2c1C`, which IC50 is on record?
Answer: 5.79 µM

Question: What about the IC90 of the same compound?
Answer: 6.53 µM

Question: What about the CC50 of the same compound?
Answer: 24.8 µM

Question: With `CCOC(=O)N1CCC(N2CCCC(C(=O)c3ccc4cc(OC)ccc4c3)C2)CC1` (stereo not given) as the compound, how does the IC50 read?
Answer: 8.9 µM

Question: And the IC90?
Answer: 25.1 µM

Question: What about the CC50 of the same compound?
Answer: > 40 µM

Question: `CCOC(=O)CSc1ncnc2c1cnn2-c1ccc(C)cc1C` was tested. Which IC50 did it give?
Answer: 1.44 µM

Question: What about the IC90 of the same compound?
Answer: 2.48 µM

Question: For `Clc1ccc2c(c1)C(c1ccccc1Cl)=NCc1nnc(N3CCN(CCOc4ccccc4)CC3)n1-2`, which IC50 is on record?
Answer: 12.5 µM

Question: And the IC90?
Answer: 16.7 µM

Question: What about the CC50 of the same compound?
Answer: > 40 µM

Question: With `Cc1ccc(-c2csc3nc[nH]c(=S)c23)cc1C` as the compound, how does the IC50 read?
Answer: 20 µM

Question: And the IC90?
Answer: > 100 µM

Question: What about the CC50 of the same compound?
Answer: 26.1 µM

Question: Which IC50 does the source give for `CCOC(=O)c1cnc(-n2nc(C)cc2C)nc1NCCc1ccccc1` here?
Answer: 0.688 µM

Question: And the IC90?
Answer: 1.06 µM

Question: And the CC50?
Answer: > 40 µM

Question: Which CC50 does the source give for `CSc1ccc(NC(=O)N2CC=C(n3c(=O)[nH]c4ccccc43)CC2)cc1` here?
Answer: > 40 µM

Question: `CCOC(=O)c1ccc(NC(=O)C2CC2)cc1` was tested. Which IC50 did it give?
Answer: 28.5 µM

Question: And the IC90?
Answer: > 100 µM

Question: How did the IC50 turn out when `COc1ccc(/C=C/c2cc(-c3ccc(C)cc3)o[n+]2C)cc1` was run?
Answer: 3.21 µM

Question: And the IC90?
Answer: 7.34 µM

Question: And the CC50?
Answer: > 40 µM

Question: With `CCOC(=O)CSc1nc(-c2ccccc2)ns1` as the compound, how does the IC50 read?
Answer: 5.59 µM

Question: And the IC90?
Answer: 8.55 µM

Question: Which results are given for `CCn1cc(C(=O)O)c(=O)c2cc(F)c(N3CCNCC3)cc21`?
Answer: IC50: 2.85 µM; IC90: 3.11 µM

Question: What does the source list for `CCOC(=O)Oc1ccc2oc(C)c(C(=O)OCCOC)c2c1`?
Answer: IC50: 26.1 µM; IC90: > 100 µM

Question: With `COc1ccc(C2CC(=O)N3C(=C2C#N)SCC3(O)c2ccccc2)cc1` (stereo not given) as the compound, how does the IC50 read?
Answer: 7 µM

Question: What about the IC90 of the same compound?
Answer: 12 µM

Question: What about the CC50 of the same compound?
Answer: > 40 µM

Question: Which results are given for `O=C(Nc1nnc(-c2ccccc2)o1)c1ccc(Cl)cc1`?
Answer: IC50: < 0.195 µM; IC90: 95.1 µM; CC50: 34.3 µM

Question: For `CCc1ccc(NC(=O)CSc2nnc(-c3ccccn3)n2C)cc1`, which IC90 is on record?
Answer: > 100 µM

Question: What does the source list for `N=c1c2c(ncn1Cc1ccco1)Oc1c(ccc3ccccc13)C2c1ccccc1` (stereo not given)?
Answer: IC50: 3.88 µM; IC90: 5.43 µM; CC50: 8.95 µM

Question: With `CCOC(=O)N1CCN(CCC(=O)Nc2ccc(C)c(Br)c2)CC1` as the compound, how does the IC50 read?
Answer: 6.69 µM

Question: What about the IC90 of the same compound?
Answer: 26.2 µM

Question: `COc1ccc(-c2ccc([C@H]3[C@@H]4C=CCC[C@@]4(C)C(=O)N3Cc3ccccc3)c(F)c2)cc1OC` was tested. Which IC50 did it give?
Answer: 13 µM

Question: What about the IC90 of the same compound?
Answer: > 100 µM

Question: And the CC50?
Answer: 39.2 µM

Question: Which results are given for `Cc1cccc(OCCCCCn2ccnc2)c1C`?
Answer: IC50: 10.6 µM; IC90: 11.6 µM; CC50: > 40 µM

Question: For `O=C(Nc1nnc(-c2ccco2)o1)c1ccc([N+](=O)[O-])s1`, which IC50 is on record?
Answer: 6.03 µM

Question: What about the IC90 of the same compound?
Answer: 8.57 µM

Question: And the CC50?
Answer: 16.6 µM

Question: Which results are given for `CC(C)Nc1cc(C(F)(F)F)nc(-c2ccccn2)n1`?
Answer: IC50: 5.17 µM; IC90: > 100 µM
